{
  "source": "patent US10370348B2",
  "about": "“Tocopherol and tocopheryl quinone derivatives as correctors of lysosomal storage disorders” (The United States of America, as represented by the …, priority 2012, dated 2019)",
  "test_system": "wild type cells",
  "assay": "Reduction of cholesterol levels in wild type cells",
  "type": "cell-based",
  "conditions": "with increasing concentration, FIG. 1A",
  "method": "The half maximal effective concentration (EC-50) for delta-tocopherol and five analogues was measured in wild type and NPC 3123 cells. […] Further, in NPC cells (FIG. 1B), the cholesterol level drop was substantial relative to the control (no delta-tocopherol).",
  "data": [
    {"compound": "Cc1cc(O)cc2c1O[C@](C)(CCC[C@H](C)CCC[C@H](C)CCCC(C)C)CC2", "note": "[delta-tocopherol]", "values": [
      {"measurement": "cholesterol levels in wild type cells", "value": "cholesterol levels dropped"}
    ]}
  ]
}
